# Experimental data as given in patent publication US6998144B2, “Method of improving sweetness delivery of sucralose” (McNeil-PPC, Inc., priority 1998, dated 2006).
# Residues, ends and D or L forms follow the SMILES beside them.
# Experiments:
# trained evaluators = experiment: Determination of equally sweet levels in bottled water by a panel of six trained evaluators; assay type: in vivo; conditions: for equally sweet level: sweetener alone in bottled water
# Source text: A panel of six trained evaluators determined equally sweet levels of sucralose, sucralose+DHB, aspartame, and aspartame+DHB, all in bottled water. […] Previous evaluations had shown 15 ppm DHB as optimal for taste alteration in sucralose products. Greater than 50 ppm DHB, in pure water solutions, has a slightly sweet taste and contributes to the total taste of the solution.
# trained panelists = experiment: Sweetness time-intensity study of equally sweet solutions, 12 trained panelists; assay type: in vivo
# Procedure: The data in Table 1 (“STIME”) in the Examples below correlate with the curves shown in this Figure. Imax: maximum intensity recorded. Tmax: first time that maximum intensity was recorded. Tend: last time that a non-zero intensity was recorded. Tdec50: last time that an intensity greater than 50% of Imax was recorded (i.e. the time at which the intensity had decreased to 50% of Imax). Tdec10: same as for Tdec50, but at 10% of Imax. Area: area under the curve. Tdecline: time interval from Tmax to Tdec10. The experiments giving rise to the data in this Figure and Table 1 are described in Example 1 below.
# The data in Table 2 (“ATIME”) in the Examples below correlate with the curves shown in this Figure. These curve parameters, as shown in the Table, are defined as per those in FIG. 1. The experiments giving rise to the data in this Figure are described in Example 1 below.
# For sweetness time-intensity studies, room temperature equally sweet solutions were presented to 12 trained panelists. The panelists had been screened for general sensory acuity and trained in general methods for sweetener assessment as well as time-intensity methods. […]
# The data collected by the computer were read every second, for a total of 180 data points per tasting. Mean panelist response was calculated for each time data point. […]
SMILES,equally sweet level (trained evaluators),sweetness delivery profile of aspartame (trained panelists; effect of DHB on aspartame),length of time during which sucralose sweetness is perceived (trained panelists; effect of DHB on sucralose),DHB level that has a slightly sweet taste and contributes to the total taste (trained evaluators; pure water solutions),"DHB level optimal for taste alteration (trained evaluators; sucralose products, previous evaluations)"
"OC[C@H]1O[C@H](O[C@]2(CCl)O[C@H](CCl)[C@@H](O)[C@@H]2O)[C@H](O)[C@@H](O)[C@H]1Cl [Sample 1, 1,6-dichloro-1,6-dideoxy-β-D-fructofuranosyl-4-chloro-4-deoxy-α-D-galactopyranoside, reference compound]",200 ppm,,,,
"COC(=O)[C@H](Cc1ccccc1)NC(=O)[C@@H](N)CC(=O)O [Sample 1, N-L-α-aspartyl-L-phenylalanine methyl ester, reference compound] (H-Asp-Phe-OMe)",550 ppm,,,,
"O=C(O)c1ccc(O)cc1O [DHB, 2,4-dihydroxybenzoic acid]",,does not alter,significantly reduces,Greater than 50 ppm,15 ppm
